In brackets after ≈: the same amount, converted by molar mass. Where two headings read alike, the source gives them in different places.
How the values were obtained:
Serum stability = type: in vitro ADME; conditions: human serum, 37° C., after 24 hours; read-out: stability in human serum, remained intact
Procedure: 2 mg/mL peptide solutions were prepared in 26% DMSO in MilliQ. Duplicate samples were prepared with […] peptide solution and […] human serum, making the final DMSO concentration 2%. The samples were incubated at 37° C., and samples were taken at t=0, 1, 2, 4 and 24 hours as follows: to 100 μL serum solution, 200 μL MeOH (containing 0.075 mg/mL ethylparaben as an internal standard) was added to precipitate the proteins. The sample was vortexed briefly and allowed to stand for 10 min at RT. The samples were then centrifuged at 13,000 rpm for 5 min, and the supernatant was taken and stored at −20° C. until analysis. Each sample was analyzed by HPLC on a C4 column. The peaks were integrated and normalized to the internal standard.

MRSA WKZ2 = type: cell-based, Staphylococcus aureus
Procedure: (§1) Determining the MIC value is a standard technique well known to the skilled person, in particular the MIC value can be measured using method M07-A9 (CLSI standard, January 2012, Vol. 32, No. 2, “Methods for Dilution Antimicrobial Susceptibility Tests for Bacteria That Grow Aerobically”).
(§2) Different microorganisms (from glycerol stock) were plated out on blood agar and incubated at 37° C. for 24 hours. A colony was selected and 2×5 mL of TSB was inoculated. The samples and a sterile control were cultured for 16-20 hours at 37° C. Comparative compound B is nisin acting as a control. Comparative compound C is vancomycin, also acting as a control. Comparative compounds A, D and E are also control compounds not part of the present invention.
(§3) The overnight cultures were diluted to 0.5×10^6 CFU in TSB. 50 μL of the bacterial solution was added to each well and the plates were sealed with an adhesive membrane and incubated at 37° C. for 16 hours. The next day, the plates were visually inspected for bacterial growth.

MRSA USA300 = type: cell-based, Staphylococcus aureus
Procedure: as §1, §2, §3

B. subtilis = system: B. subtilis
Procedure: as §1
as §2, with “Comparative compound C is vancomycin, also acting as a control.” left out
as §3

S. aureus = system: S. aureus
Procedure: as §1
as §2, with “Comparative compound C is vancomycin, also acting as a control.” left out
as §3

E. coli = system: E. coli
Procedure: as §1
as §2, with “Comparative compound C is vancomycin, also acting as a control.” left out
as §3

M. luteus = type: cell-based
Procedure: as §1, §2, §3

VRE 155 = type: cell-based
Procedure: as §1, §2, §3

In the case of `C=C1NC(=O)[C@H]([C@@H](C)CC)NC(=O)[C@H](NC(=O)C(=CC)NC(=O)[C@@H](N)[C@@H](C)CC)CSC[C@@H](C(=O)N[C@H]2C(=O)N3CCC[C@H]3C(=O)NCC(=O)N[C@H](C(=O)N[C@@H](CCCCN)C(=O)NCCCCCCCCCCCCCC)CS[C@H]2C)NC(=O)[C@H](CC(C)C)NC1=O` [(10)], the MIC (thirty VRE strains; VRE strain E0013, GBR, vanA) is reported as 4 µg/mL (≈ 2.97 µM), the MIC (thirty VRE strains; VRE strain E0072, NLD, vanA) is reported as 2 µg/mL (≈ 1.49 µM) and the MIC (thirty VRE strains; VRE strain E0300, USA, vanA) is reported as 8 to 16 µg/mL. For the same compound, the MIC (thirty VRE strains; VRE strain E0321, FRA, vanA) was 2 µg/mL (≈ 1.49 µM), the MIC (thirty VRE strains; VRE strain E0333, ISR, vanA) was 4 µg/mL (≈ 2.97 µM) and the MIC (thirty VRE strains; VRE strain E0338, ITA, vanA) was 4 µg/mL (≈ 2.97 µM). For the same compound, the MIC (thirty VRE strains; VRE strain E0341, GBR, vanA) was 4 µg/mL (≈ 2.97 µM), the MIC (thirty VRE strains; VRE strain E0506, AUS, vanA) was 8 µg/mL (≈ 5.94 µM) and the MIC (thirty VRE strains; VRE strain E0745, NLD, vanA) was 4 µg/mL (≈ 2.97 µM). The MIC (thirty VRE strains; VRE strain E1130, USA, vanA) was 4 µg/mL (≈ 2.97 µM), the MIC (thirty VRE strains; VRE strain E1441, GRC, vanA) was 4 µg/mL (≈ 2.97 µM) and the MIC (thirty VRE strains; VRE strain E1679, BRA, vanA) was 4 µg/mL (≈ 2.97 µM). The MIC (thirty VRE strains; VRE strain E1763, BEL, vanA) was 8 µg/mL (≈ 5.94 µM), the MIC (thirty VRE strains; VRE strain E2297, USA, vanA) was 2 µg/mL (≈ 1.49 µM) and the MIC (thirty VRE strains; VRE strain E2359, SGP, vanB) was 2 µg/mL (≈ 1.49 µM). It also gave an MIC (thirty VRE strains; VRE strain E2365, HUN, vanB) of 1 µg/mL (≈ 0.743 µM), an MIC (thirty VRE strains; VRE strain E2373, SRB, vanA) of 4 µg/mL (≈ 2.97 µM) and an MIC (thirty VRE strains; VRE strain E6016, LVA, vanA) of 2 to 4 µg/mL. The MIC (thirty VRE strains; VRE strain E7312, NLD, vanA) was 2 µg/mL (≈ 1.49 µM), the MIC (thirty VRE strains; VRE strain E7314, NLD, vanB) was 4 µg/mL (≈ 2.97 µM) and the MIC (thirty VRE strains; VRE strain E7319, NLD, vanA) was 2 µg/mL (≈ 1.49 µM). For the same compound, the MIC (thirty VRE strains; VRE strain E7329, NLD, vanA) was 2 µg/mL (≈ 1.49 µM), the MIC (thirty VRE strains; VRE strain E7401, NLD, vanB) was 4 µg/mL (≈ 2.97 µM) and the MIC (thirty VRE strains; VRE strain E7403, NLD, vanB) was 1 µg/mL (≈ 0.743 µM). For the same compound, the MIC (thirty VRE strains; VRE strain E7413, NLD, vanA) was 4 µg/mL (≈ 2.97 µM), the MIC (thirty VRE strains; VRE strain E7424, NLD, vanB) was 1 to 2 µg/mL and the MIC (thirty VRE strains; VRE strain E7464, NLD, vanB) was 4 µg/mL (≈ 2.97 µM). It also gave an MIC (thirty VRE strains; VRE strain E8218, NLD, vanB) of 2 µg/mL (≈ 1.49 µM), an MIC (thirty VRE strains; VRE strain E8235, NLD, vanB) of 4 µg/mL (≈ 2.97 µM) and an MIC (thirty VRE strains; VRE strain E8237, NLD, vanA) of 8 µg/mL (≈ 5.94 µM). For the same compound, the remaining at 24 h, 0.15 mg/mL (Serum stability) was > 50%, the “MIC values MRSA WKZ2” value (MRSA WKZ2; duplicate experiments) was 32 µg/mL (≈ 23.8 µM) and the “MIC values MRSA USA300” value (MRSA USA300; duplicate experiments) was 64 µg/mL (≈ 47.6 µM). For the same compound, the “MIC values B. subtilis” value (B. subtilis; duplicate experiments) was 4 µg/mL (≈ 2.97 µM), the “MIC values S. aureus” value (S. aureus; duplicate experiments) was 16 µg/mL (≈ 11.9 µM) and the “MIC values E. coli” value (E. coli; duplicate experiments) was >64 µg/mL. The “MIC values M. luteus” value (M. luteus; duplicate experiments) was 1 to 2 µg/mL and the “MIC values VRE 155” value (VRE 155; duplicate experiments) was 4 µg/mL (≈ 2.97 µM).
In the case of `C=C1NC(=O)[C@H]([C@@H](C)CC)NC(=O)[C@H](NC(=O)C(=CC)NC(=O)[C@@H](N)[C@@H](C)CC)CSC[C@@H](C(=O)N[C@H]2C(=O)N3CCC[C@H]3C(=O)NCC(=O)N[C@H](C(=O)N[C@@H](CCCCN)C(=O)NCCCn3cc(CNC(=O)c4ccc(-c5ccc(-c6ccccc6)cc5)cc4)nn3)CS[C@H]2C)NC(=O)[C@H](CC(C)C)NC1=O` [Compound (24) with R1-group (e)], the “MIC values MRSA WKZ2” value (MRSA WKZ2; WKZ2) is reported as 8 µg/mL (≈ 5.18 µM), the “MIC values MRSA USA300” value (MRSA USA300; USA300) is reported as 8 µg/mL (≈ 5.18 µM) and the “MIC values B. subtilis” value (B. subtilis) is reported as 4 µg/mL (≈ 2.59 µM). For the same compound, the “MIC values S. aureus” value (S. aureus) was 8 µg/mL (≈ 5.18 µM), the “MIC values E. coli” value (E. coli) was >64 µg/mL and the “MIC values M. luteus” value (M. luteus) was 2 µg/mL (≈ 1.3 µM). For the same compound, the “MIC values VRE 155” value (VRE 155) was 8 µg/mL (≈ 5.18 µM).
In the case of `C=C1NC(=O)[C@H]([C@@H](C)CC)NC(=O)[C@H](NC(=O)C(=CC)NC(=O)[C@@H](N)[C@@H](C)CC)CSC[C@@H](C(=O)N[C@H]2C(=O)N3CCC[C@H]3C(=O)NCC(=O)N[C@H](C(=O)N[C@@H](CCCCN)C(=O)NCCCn3cc(CCC(=O)NC/C=C(\C)CC/C=C(\C)CCC=C(C)C)nn3)CS[C@H]2C)NC(=O)[C@H](CC(C)C)NC1=O` [Compound (24) with R1-group (d)], the “MIC values B. subtilis” value (B. subtilis) is reported as 32 µg/mL (≈ 20.9 µM), the “MIC values S. aureus” value (S. aureus) is reported as 64 µg/mL (≈ 41.7 µM) and the “MIC values E. coli” value (E. coli) is reported as >64 µg/mL. The “MIC values M. luteus” value (M. luteus) was 2 to 4 µg/mL.
With `C=C1NC(=O)[C@H]([C@@H](C)CC)NC(=O)[C@H](NC(=O)C(=CC)NC(=O)[C@@H](N)[C@@H](C)CC)CSC[C@@H](C(=O)N[C@H]2C(=O)N3CCC[C@H]3C(=O)NCC(=O)N[C@H](C(=O)N[C@@H](CCCCN)C(=O)NCCCn3cc(CCC(=O)N(CCCCCCCCCC)CCCCCCCCCC)nn3)CS[C@H]2C)NC(=O)[C@H](CC(C)C)NC1=O` [Compound (24) with R1-group (b)] the “MIC values B. subtilis” value (B. subtilis) was >64 µg/mL, the “MIC values S. aureus” value (S. aureus) was >64 µg/mL and the “MIC values E. coli” value (E. coli) was >64 µg/mL. For the same compound, the “MIC values M. luteus” value (M. luteus) was 8 µg/mL (≈ 4.97 µM).
For `C=C1NC(=O)[C@H]([C@@H](C)CC)NC(=O)[C@H](NC(=O)C(=CC)NC(=O)[C@@H](N)[C@@H](C)CC)CSC[C@@H](C(=O)N[C@H]2C(=O)N3CCC[C@H]3C(=O)NCC(=O)N[C@H](C(=O)N[C@@H](CCCCN)C(=O)NCCCCCC)CS[C@H]2C)NC(=O)[C@H](CC(C)C)NC1=O` [(2)], the “MIC values B. subtilis” value (B. subtilis; duplicate experiments) was 32 µg/mL (≈ 25.9 µM), the “MIC values S. aureus” value (S. aureus; duplicate experiments) was >64 µg/mL and the “MIC values E. coli” value (E. coli; duplicate experiments) was >64 µg/mL. For the same compound, the “MIC values M. luteus” value (M. luteus; duplicate experiments) was 2 µg/mL (≈ 1.62 µM).
